Experimental data from patent US8067424B2, “Selective inhibitors for cyclin-dependent kinases” (Emory University, priority 2007, dated 2011).
Read-outs that look alike come from different tables or passages of the source.

Assays:
Format in all cases: biochemical
p38α MAPK = p38α MAPK (Homo sapiens, UniProt Q16539); assay: Kinase screen: SAPK 2a/p38 assay
Description: (§1) Generally, the same procedure was used for all assays. Since the total assay volume was 25.5 microliters, 0.5 microliters of inhibitors at 51× assay concentration were added to the plates before any other addition.
(§2) The basic procedure was to add 0.5 microliters inhibitor/control in DMSO to plate. Fifteen microliters of enzyme/substrate/buffer mix were added and incubated for 5 min. Ten microliters MgATP at the relevant concentration were added and incubated for 30 min. The assay was stopped by adding 5 microliters of 3% orthophosphoric acid. The assay was transferred to a p81 filter plate and read in a scintillation counter of 30 sec/well. Note that this assay procedure was not followed for MKK1, which instead involved a two-step assay, and PKC alpha, which required the addition of lipid vesicles.
(§3) SAPK 2a/p38 assay: SAPK 2a/p38 (5-20 mU diluted in 50 mM Tris pH 7.5, 0.1 mM EGTA, 0.1 mM Na3VO4, 0.1% b-mercaptoethanol, 1 mg/ml BSA) was assayed against MBP in a final volume of 25.5 μl containing 25 mM Tris pH 7.5, 0.1 mM EGTA, 0.33 mg/ml MBP, 10 mM magnesium acetate and 0.05 mM [33P-g-ATP] (50-1000 cpm/pmole) and incubated for 30 min at room temperature. Assays were stopped by addition of 5 μl of 0.5 M (3%) orthophosphoric acid and then harvested onto P81 Unifilter plates with a wash buffer of 50 mM orthophosphoric acid.

P38β MAPK = P38β MAPK (Homo sapiens, UniProt Q15759); assay: Kinase screen: SAPK 2b/p38β2 assay
P38β MAPK, sequence (Q15759 whole entry): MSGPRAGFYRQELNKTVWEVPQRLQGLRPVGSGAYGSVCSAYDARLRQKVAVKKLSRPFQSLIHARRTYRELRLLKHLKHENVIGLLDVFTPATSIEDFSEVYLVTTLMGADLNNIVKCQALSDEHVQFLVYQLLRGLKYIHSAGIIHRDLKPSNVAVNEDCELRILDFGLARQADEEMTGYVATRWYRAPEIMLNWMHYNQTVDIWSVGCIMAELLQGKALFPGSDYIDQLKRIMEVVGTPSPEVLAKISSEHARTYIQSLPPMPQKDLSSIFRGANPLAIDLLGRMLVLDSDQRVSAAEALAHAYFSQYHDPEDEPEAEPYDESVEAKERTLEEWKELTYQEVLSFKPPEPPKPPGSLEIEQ
Description: as §1, §2
as §3, with “2b/p38β2” for “2a/p38”, “0.02” for “0.05”

S6K1 = S6K1 (Homo sapiens, UniProt P23443); assay: Kinase screen: S6K1/P70 S6K assay
S6K1, sequence (P23443 whole entry, species assumed): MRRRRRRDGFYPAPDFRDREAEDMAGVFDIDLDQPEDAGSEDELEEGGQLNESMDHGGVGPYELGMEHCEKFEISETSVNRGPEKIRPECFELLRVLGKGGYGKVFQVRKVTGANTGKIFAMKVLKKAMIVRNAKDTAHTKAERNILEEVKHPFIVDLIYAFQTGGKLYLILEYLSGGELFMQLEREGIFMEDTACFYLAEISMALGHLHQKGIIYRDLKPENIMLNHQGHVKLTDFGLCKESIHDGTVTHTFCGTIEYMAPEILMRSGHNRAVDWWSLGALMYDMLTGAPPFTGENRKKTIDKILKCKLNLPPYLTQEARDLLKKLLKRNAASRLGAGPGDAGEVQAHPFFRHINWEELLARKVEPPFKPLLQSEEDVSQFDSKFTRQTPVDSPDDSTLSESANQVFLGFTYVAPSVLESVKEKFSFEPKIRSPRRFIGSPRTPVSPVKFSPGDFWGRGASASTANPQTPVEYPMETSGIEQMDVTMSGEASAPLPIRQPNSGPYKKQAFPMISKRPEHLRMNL
Description: as §1, §2
(50-1000 cpm/pmole) and incubated for 30 min at room temperature. Assays were stopped by addition of 5 μl of 0.5 M (3%) orthophosphoric acid and then harvested onto P81 Unifilter plates with a wash buffer of 50 mM orthophosphoric acid.

BRSK2 = target: T1, BRSK2 (Homo sapiens, UniProt Q8IWQ3); assay: Kinase screen: BRSK2 assay
T1 sequence (Q8IWQ3 1-736): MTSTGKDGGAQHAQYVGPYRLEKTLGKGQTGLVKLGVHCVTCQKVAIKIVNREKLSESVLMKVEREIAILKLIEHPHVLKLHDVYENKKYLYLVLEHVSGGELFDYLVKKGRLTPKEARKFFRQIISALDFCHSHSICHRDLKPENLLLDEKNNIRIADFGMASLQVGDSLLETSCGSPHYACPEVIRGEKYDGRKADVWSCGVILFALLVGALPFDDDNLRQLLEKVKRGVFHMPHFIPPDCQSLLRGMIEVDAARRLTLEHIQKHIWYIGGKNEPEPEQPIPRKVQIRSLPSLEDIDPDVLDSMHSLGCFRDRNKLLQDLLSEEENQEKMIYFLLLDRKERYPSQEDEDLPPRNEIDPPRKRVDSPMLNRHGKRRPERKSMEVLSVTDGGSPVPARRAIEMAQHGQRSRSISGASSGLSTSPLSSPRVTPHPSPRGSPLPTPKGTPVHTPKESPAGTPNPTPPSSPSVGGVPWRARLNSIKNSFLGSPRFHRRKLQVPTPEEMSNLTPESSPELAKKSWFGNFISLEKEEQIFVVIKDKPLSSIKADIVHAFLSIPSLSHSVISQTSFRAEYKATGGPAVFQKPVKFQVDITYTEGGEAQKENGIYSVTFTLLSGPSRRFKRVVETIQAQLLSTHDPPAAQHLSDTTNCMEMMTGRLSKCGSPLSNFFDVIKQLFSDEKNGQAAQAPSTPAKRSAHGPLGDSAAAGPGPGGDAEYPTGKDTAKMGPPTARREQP
Description: as §1, §2
BRSK2 assay: BRSK2 (5-20 mU diluted in 50 mM Tris pH 7.5, 0.1 mM EGTA, 0.1% b-mercaptoethanol, 1 mg/ml BSA) was assayed against a substrate peptide ([…]) (SEQ ID NO: 33) in a final volume of 25.5 μl containing 50 mM Tris pH 7.5, 0.05% b-mercaptoethanol, 300 μM substrate peptide, 10 mM magnesium acetate and 0.05 mM [33P-g-ATP] (50-1000 cpm/pmole) and incubated for 30 min at room temperature. Assays were stopped by addition of 5 μl of 0.5 M (3%) orthophosphoric acid and then harvested onto P81 Unifilter plates with a wash buffer of 50 mM orthophosphoric acid.

CSK = CSK (Homo sapiens, UniProt P41240); assay: Kinase screen: CSK assay
CSK, sequence (P41240 whole entry, species assumed): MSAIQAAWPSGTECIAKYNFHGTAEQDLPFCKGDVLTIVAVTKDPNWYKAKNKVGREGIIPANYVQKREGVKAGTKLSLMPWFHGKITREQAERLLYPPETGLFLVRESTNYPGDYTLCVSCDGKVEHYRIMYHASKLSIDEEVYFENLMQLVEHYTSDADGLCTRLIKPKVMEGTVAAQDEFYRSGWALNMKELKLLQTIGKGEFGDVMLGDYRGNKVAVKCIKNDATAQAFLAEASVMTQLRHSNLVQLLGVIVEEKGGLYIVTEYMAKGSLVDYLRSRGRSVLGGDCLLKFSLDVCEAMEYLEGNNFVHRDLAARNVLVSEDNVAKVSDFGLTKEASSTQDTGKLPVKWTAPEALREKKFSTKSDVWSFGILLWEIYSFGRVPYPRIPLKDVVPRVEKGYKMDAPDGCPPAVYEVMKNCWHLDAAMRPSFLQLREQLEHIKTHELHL
Description: as §1, §2
(500-1000 cpm/pmole) and incubated for 30 min at room temperature Assays were stopped by addition of 5 μl of 0.5 M (3%) orthophosphoric acid and then harvested onto P81 Unifilter plates with a wash buffer of 50 mM orthophosphoric acid.

SYK = SYK (Homo sapiens, UniProt P43405); assay: Kinase screen: SYK assay; conditions: 10 micromolar compound; for remaining activity at 10 µM: read-out: mean activity remaining (as a percentage of the original activity), SYK
Description: as §1, §2
SYK assay: SYK (5-20 mU diluted in 50 mM Tris pH 7.5, 0.1 mM EGTA, 1 mg/ml BSA) was assayed against a substrate peptide (Poly Glut Tyr) in a final volume of 25.5 μl containing 50 mM Tris pH 7.5, 1 mg/ml substrate peptide, 10 mM magnesium acetate and 0.02 mM [33P-g-ATP] (50-1000 cpm/pmole) and incubated for 30 min at room temperature. Assays were stopped by addition of 5 μl of 0.5 M (3%) orthophosphoric acid and then harvested onto P81 Unifilter plates with a wash buffer of 50 mM orthophosphoric acid.

[1] = 10 micromolar compound, read-out: mean activity remaining (as a percentage of the original activity), p38a2 MAPK
[2] = 10 micromolar compound, read-out: mean activity remaining (as a percentage of the original activity), p38b MAPK
[3] = 10 micromolar compound, read-out: mean activity remaining (as a percentage of the original activity), S6K1
[4] = 10 micromolar compound, read-out: mean activity remaining (as a percentage of the original activity), BRSK 2
[5] = 10 micromolar compound, read-out: mean activity remaining (as a percentage of the original activity), CSK

p38α MAPK, sequence (Q16539 whole entry): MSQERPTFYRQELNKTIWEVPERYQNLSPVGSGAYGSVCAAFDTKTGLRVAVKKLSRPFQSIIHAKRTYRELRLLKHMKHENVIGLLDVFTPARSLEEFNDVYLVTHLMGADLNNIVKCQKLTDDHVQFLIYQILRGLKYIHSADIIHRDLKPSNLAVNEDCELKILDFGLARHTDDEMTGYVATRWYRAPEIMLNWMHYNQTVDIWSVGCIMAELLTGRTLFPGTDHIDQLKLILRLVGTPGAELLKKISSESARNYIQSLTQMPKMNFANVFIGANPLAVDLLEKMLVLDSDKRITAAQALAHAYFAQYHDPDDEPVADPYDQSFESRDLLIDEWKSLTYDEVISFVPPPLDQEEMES

## CC(C)c1cnn2c(NCc3ccccc3)cc(NCCCCCCCN)nc12 [BS-181]
p38α MAPK; p38α MAPK, 10 μM, read-out: Mean Remaining Enzyme Activity (%)
  remaining activity at 10 µM: 95%
P38β MAPK; P38β MAPK, 10 μM, read-out: Mean Remaining Enzyme Activity (%)
  remaining activity at 10 µM: 115%
S6K1; S6K1, 10 μM, read-out: Mean Remaining Enzyme Activity (%)
  remaining activity at 10 µM: 95%
BRSK2; BRSK2, 10 μM, read-out: Mean Remaining Enzyme Activity (%)
  remaining activity at 10 µM: 98%
CSK; CSK, 10 μM, read-out: Mean Remaining Enzyme Activity (%)
  remaining activity at 10 µM: 89%

## C=C[C@H](CO)Nc1cc(NCc2ccccc2)n2ncc(C(C)C)c2n1 [ICEC0065]
p38α MAPK; [1]
  remaining activity at 10 µM: 94%
P38β MAPK; [2]
  remaining activity at 10 µM: 104%
S6K1; [3]
  remaining activity at 10 µM: 78%
BRSK2; [4]
  remaining activity at 10 µM: 76%
CSK; [5]
  remaining activity at 10 µM: 77%
SYK
  remaining activity at 10 µM: 104%

## CC[C@H](CO)Nc1cc(NCc2ccccc2)n2ncc(C(C)C)c2n1 [ICEC0067]
p38α MAPK; [1]
  remaining activity at 10 µM: 99%
P38β MAPK; [2]
  remaining activity at 10 µM: 98%
S6K1; [3]
  remaining activity at 10 µM: 74%
BRSK2; [4]
  remaining activity at 10 µM: 76%
CSK; [5]
  remaining activity at 10 µM: 77%
SYK
  remaining activity at 10 µM: 104%

## CC(C)c1cnn2c(NCc3ccccc3)cc(N[C@@H](CO)[C@H](O)CO)nc12 [ICEC0318, (3S)-3-(7-(Benzylamino)-3-isopropylpyrazolo[1,5-a]pyrimidin-5-ylamino)butane-1,2,4-triol]
p38α MAPK; [1]
  remaining activity at 10 µM: 98%
P38β MAPK; [2]
  remaining activity at 10 µM: 94%
S6K1; [3]
  remaining activity at 10 µM: 77%
BRSK2; [4]
  remaining activity at 10 µM: 108%
CSK; [5]
  remaining activity at 10 µM: 77%
SYK
  remaining activity at 10 µM: 120%

## CC(C)c1cnn2c(NCc3ccccc3F)cc(NCCCCCN)nc12 [ICEC-0232]
p38α MAPK; 10 micromolar compound
  mean activity remaining (as a percentage of the original activity), p38a2 MAPK: 86%
P38β MAPK; 10 micromolar compound
  mean activity remaining (as a percentage of the original activity), p38b MAPK: 102%
S6K1; 10 micromolar compound
  mean activity remaining (as a percentage of the original activity), S6K1: 42%
BRSK2; 10 micromolar compound
  mean activity remaining (as a percentage of the original activity), BRSK 2: 81%
CSK; 10 micromolar compound
  mean activity remaining (as a percentage of the original activity), CSK: 78%
SYK
  mean activity remaining (as a percentage of the original activity), SYK: 84%
